Data from patent US20250213589A1, “METHODS AND COMPOSITIONS FOR TE[…]” (priority 2023, published 2025).

Tests used:
[1] = FIG. 1: testosterone concentration in a patient at various time points after 200 mg of testosterone; conditions: after administration; FIG. 1, 200 mg of testosterone
Procedure: FIG. 1 is a phase diagram of the testosterone concentration in a patient at various time points after being administered 200 mg of testosterone.
Hormone levels were measured after co-administration of 200 mg of testosterone and 6.25 mg of enclomiphene for 30 days. Testosterone concentration was measured at +4 hours and +12 hours after administration. […] Testosterone concentration was measured at +4 hours after administration to capture the peak testosterone concentration (cMax) and +12 hours after administration to capture the trough testosterone concentration (cMin) to determine if endogenous testosterone suppression is prevented with the enclomiphene.

[2] = test system: endogenous testosterone, LH, and FSH production; test: Example 3: hormone levels after administration of enclomiphene (pre-TRT); assay type: in vivo, human; conditions: after 6.25 mg of enclomiphene; n=1
Procedure: This example investigated the effects of administering a SERM (enclomiphene) on endogenous testosterone, LH, and FSH production.
Hormone levels were measured after administration of 6.25 mg of enclomiphene (see Table 3, n=1).

Row | SMILES | time of testosterone peak [1] [h] | time until testosterone is out of the system [1] [h] | Calculated free testosterone levels [2] [pg/mL] | Sex Hormone Binding Globulin [2] [nmol/L] | Testosterone, Bioavailable [2] [ng/dL] | Testosterone, Free [2] [pg/mL] | Testosterone, Total, MS [2] [ng/dL] | increase of calculated free testosterone from baseline (114 pg/mL) [2] [%]
1 | C[C@]12CC[C@H]3[C@@H](CCC4=CC(=O)CC[C@@]43C)[C@@H]1CC[C@@H]2O [Testosterone, testosterone] | 3 to 5 | ≤ 12 |  |  |  |  |  | 
2 | CCN(CC)CCOc1ccc(/C(=C(/Cl)c2ccccc2)c2ccccc2)cc1 [enclomiphene] |  |  | 197 | 20 | 322.9 | 153.7 | 724 | 73
